Assay results published in BindingDB's records for doi:10.1021/jm9700171 (Washington University, 1998).

Target: Substance-P receptor (Bos taurus)
Test: Binding affinity was measured against the Tachykinin receptor 1 in bovine retina using [3H]SP

IC50 [nM]	SMILES
25.7	Cc1cc(C)cc(C(=O)N[C@H]2CCN(C(=O)c3cc(Cl)cc(Cl)c3)[C@H](Cc3ccccc3)C2)c1
15.1	Cc1cc(C)cc(C(=O)N2CC[C@H](NCCc3ccccc3)C[C@H]2Cc2ccccc2)c1 [CGP-47899]
